Measurements taken from US10669235B2, “Indole derivatives and their use as protein kinase inhibitors” (RESPIVERT LIMITED, priority 2016, dated 2020).
Where a name gives a salt, the structure may show the parent alone. Read-outs that look alike come from different tables or passages of the source.

Columns and labels:
PDGFRβ [1] = target: T1, PDGFRβ (Homo sapiens (Human), UniProt P09619); experiment: PDGFRβ enzyme inhibition (ADP-Glo assay); format: biochemical; conditions: mean, n = 2 (nintedanib n = 34)
PDGFRβ [2] = target: T1, PDGFRβ; experiment: PDGF-BB induced phosphorylation of PDGFRβ in fibroblasts (MRC5, HTRF); format: cell-based; conditions: MRC5 cells, PDGFBB stimulation; read-out: PDGFBB-induced PDGFRβ phosphorylation in MRC5 cells (IC50)
PAMPA permeability assay = format: in vitro ADME; conditions: pH 7, PAMPA; for Papp at 5 h, 10 µM: pH 7, 10 μM
[3] = Pharmacokinetic measurements in rats (i.v., i.t., oral); format: in vivo; conditions: rat; for concentration at 0.1 h / concentration at 1.5 h / concentration at 6 h / concentration at 24 h: male, CD, lung; for concentration at 0.1 h: read-out: lung concentration (nM) at time 0.1 h; for concentration at 1.5 h: read-out: lung concentration (nM) at time 1.5 h; for concentration at 6 h: read-out: lung concentration (nM) at time 6 h; for concentration at 24 h: read-out: lung concentration (nM) at time 24 h
MRC5 cells = experiment: Cell viability assay in MRC5 cells (MTT)
[4] = i.t. dose 0.1 (nintedanib 0.42)
[5] = i.v. dose 0.1 (nintedanib 0.42)

T1 sequence (P09619 33-1106): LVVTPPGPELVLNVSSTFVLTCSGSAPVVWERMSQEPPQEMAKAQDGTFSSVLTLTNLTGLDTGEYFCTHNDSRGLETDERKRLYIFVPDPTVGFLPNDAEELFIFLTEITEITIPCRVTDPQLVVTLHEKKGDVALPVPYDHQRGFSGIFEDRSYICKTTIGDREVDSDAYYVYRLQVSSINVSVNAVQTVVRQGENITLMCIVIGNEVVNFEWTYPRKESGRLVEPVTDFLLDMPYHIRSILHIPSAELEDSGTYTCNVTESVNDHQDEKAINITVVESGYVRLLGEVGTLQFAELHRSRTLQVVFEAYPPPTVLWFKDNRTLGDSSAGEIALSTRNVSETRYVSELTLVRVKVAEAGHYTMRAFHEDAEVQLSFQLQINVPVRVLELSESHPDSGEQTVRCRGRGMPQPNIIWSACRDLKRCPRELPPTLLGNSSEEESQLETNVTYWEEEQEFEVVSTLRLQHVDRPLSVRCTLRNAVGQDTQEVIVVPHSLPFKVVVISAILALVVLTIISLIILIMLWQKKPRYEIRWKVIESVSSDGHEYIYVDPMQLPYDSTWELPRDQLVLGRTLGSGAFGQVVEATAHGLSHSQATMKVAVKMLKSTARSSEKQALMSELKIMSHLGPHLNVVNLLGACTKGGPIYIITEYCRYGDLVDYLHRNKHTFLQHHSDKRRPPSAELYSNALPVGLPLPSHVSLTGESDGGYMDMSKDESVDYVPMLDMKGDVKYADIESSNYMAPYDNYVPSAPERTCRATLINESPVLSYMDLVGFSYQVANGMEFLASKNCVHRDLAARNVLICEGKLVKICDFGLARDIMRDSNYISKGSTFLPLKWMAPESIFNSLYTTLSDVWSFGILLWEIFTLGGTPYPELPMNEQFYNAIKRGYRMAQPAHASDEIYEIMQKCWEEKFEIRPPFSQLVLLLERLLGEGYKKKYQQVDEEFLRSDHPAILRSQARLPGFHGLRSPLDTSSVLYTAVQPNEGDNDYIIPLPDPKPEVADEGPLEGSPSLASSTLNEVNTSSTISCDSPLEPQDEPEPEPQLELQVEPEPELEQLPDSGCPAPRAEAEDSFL

| Compound | Ki (PDGFRβ [1]) | IC50 (PDGFRβ [2]) | recovery at 5 hr, 10 μM (PAMPA permeability assay) | Papp at 5 h, 10 µM (PAMPA permeability assay) | Cell viability at 100 nM (%) (MRC5 cells) | Cell viability at 300 nM (%) (MRC5 cells) | Cell viability at 1000 nM (%) (MRC5 cells) | also measured |
| --- | --- | --- | --- | --- | --- | --- | --- | --- |
| COC(=O)c1cc2c(cc1C)/C(=C(/Nc1ccc(C(=O)NCCN3CCN(C)CC3)cc1)c1ccccc1)C(=O)N2 [Example 4, (Z)-Methyl 5-methyl-3-(((4-((2-(4-methylpiperazin-1-yl)ethyl)carbamoyl)phenyl)amino)(phenyl)methylene)-2-oxoindoline-6-carboxylate] | 11.6 nM | 14 nM | 76% | 0.0216 ×10⁻⁶ cm/s | – | – | – | concentration at 0.1 h ([3]; iv): 959 nM; concentration at 1.5 h ([3]; iv): 641 nM; concentration at 6 h ([3]; iv): 156 nM; concentration at 24 h ([3]; iv): 88 nM; concentration at 0.1 h ([3]; other: intra-tracheal): 3490 nM; concentration at 1.5 h ([3]; other: intra-tracheal): 1210 nM; concentration at 6 h ([3]; other: intra-tracheal): 475 nM; concentration at 24 h ([3]; other: intra-tracheal): 370 nM; BAL % administered dose at time 0.1 h [3, 4]: 3.4%; BAL % administered dose at time 1.5 h [3, 4]: 0.4%; BAL % administered dose at time 6 h [3, 4]: 0.4%; BAL % administered dose at time 24 h [3, 4]: 0.3%; BAL % administered dose at time 0.1 h [3, 5]: 0.07%; BAL % administered dose at time 1.5 h [3, 5]: 0.04%; BAL % administered dose at time 6 h [3, 5]: BQL; BAL % administered dose at time 24 h [3, 5]: BQL |
| COC(=O)c1cc2c(cc1C)/C(=C(/Nc1ccc(C(=O)NCCC(=O)N3CCN(C)CC3)cc1)c1ccccc1)C(=O)N2 [Example 10, (Z)-Methyl 5-methyl-3-(((4-((3-(4-methylpiperazin-1-yl)-3-oxopropyl)carbamoyl)phenyl)amino) (phenyl)methylene)-2-oxoindoline-6-carboxylate] | 12.7 nM | 15.9 nM | 70.4% | 0.0428 ×10⁻⁶ cm/s | 85% | 118.9% | 108.4% | – |
| CNC(=O)CN1CCN(C(=O)c2ccc(N/C(=C3\C(=O)Nc4cc(C(=O)OC)c(C)cc43)c3ccccc3)cc2)CC1 [Example 11, (Z)-Methyl 5-methyl-3-(((4-(4-(2-(methylamino)-2-oxoethyl)piperazine-1-carbonyl)phenyl)amino) (phenyl)methylene)-2-oxoindoline-6-carboxylate] | 10.6 nM | 2.75 nM | 93.2% | 0.0479 ×10⁻⁶ cm/s | 82% | 67.8% | 28.5% | – |
| COC(=O)c1cc2c(cc1C)/C(=C(/Nc1ccc(C(=O)NC3CCN(CCO)CC3)cc1)c1ccccc1)C(=O)N2 [Example 13, (Z)-Methyl 3-(((4-((1-(2-hydroxyethyl)piperidin-4-yl)carbamoyl)phenyl)amino) (phenyl)methylene)-5-methyl-2-oxoindoline-6-carboxylate] | 10.4 nM | 1.25 nM | 76.3% | 0.0439 ×10⁻⁶ cm/s | 84.3% | 93.2% | 102.1% | – |
| COC(=O)c1cc2c(cc1C)/C(=C(/Nc1ccc(C(=O)N3CCN(C)CC3)cc1)c1ccccc1)C(=O)N2 [Example 17, (Z)-Methyl 5-methyl-3-(((4-(4-methylpiperazine-1-carbonyl)phenyl)amino)(phenyl)methylene)-2-oxoindoline-6-carboxylate] | 9.39 nM | 4.48 nM | 59.8% | 24.6 ×10⁻⁶ cm/s | 76.2% | 63.6% | 34.1% | – |
| COC(=O)c1cc2c(cc1C)/C(=C(/Nc1ccc(C(=O)N3CCN(CCO)CC3)cc1)c1ccccc1)C(=O)N2 [Example 19, (Z)-Methyl 3-(((4-(4-(2-hydroxyethyl)piperazine-1-carbonyl)phenyl)amino)(phenyl)methylene)-5-methyl-2-oxoindoline-6-carboxylate, 0.5 formate] | 8.79 nM | 5.04 nM | 61.8% | 0.589 ×10⁻⁶ cm/s | 85.5% | 71.8% | 21.9% | – |
| COCCN1CCC(NC(=O)c2ccc(N/C(=C3\C(=O)Nc4cc(C(=O)OC)c(C)cc43)c3ccccc3)cc2)CC1 [Example 20, (Z)-Methyl 3-(((4-((1-(2-methoxyethyl)piperidin-4-yl)carbamoyl)phenyl)amino)(phenyl)methylene)-5-methyl-2-oxoindoline-6-carboxylate] | 19.1 nM | 38.9 nM | 104% | 0.0165 ×10⁻⁶ cm/s | 92.6% | 91.7% | 87.2% | – |
| COC(=O)c1cc2c(cc1C)/C(=C(/Nc1ccc(C(=O)NCCCN3CCN(C)CC3)cc1)c1ccccc1)C(=O)N2 [Example 21, (Z)-Methyl-5-methyl-3-(((4-((3-(4-methylpiperazin-1-yl)propyl)carbamoyl)phenyl)amino)(phenyl)methylene)-2-oxoindoline-6-carboxylate, formate] | 6.11 nM | 35.1 nM | 76% | 0.0442 ×10⁻⁶ cm/s | 139.6% | 127.3% | 98.8% | – |
| COC(=O)c1cc2c(cc1C)/C(=C(/Nc1ccc(C(=O)NCCCN(C)C)cc1)c1ccccc1)C(=O)N2 [Example 22, (Z)-Methyl 3-(((4-((3-(dimethylamino)propyl)carbamoyl)phenyl)amino)(phenyl)methylene)-5-methyl-2-oxoindoline-6-carboxylate, 0.5 formate] | 9.29 nM | 12.3 nM | 101% | 0.046 ×10⁻⁶ cm/s | 72.3% | 58.8% | 48.8% | – |
| COC(=O)c1cc2c(cc1C)/C(=C(/Nc1ccc(C(=O)N3CCCN(CCO)CC3)cc1)c1ccccc1)C(=O)N2 [Example 46, (Z)-Methyl-3-(((4-(4-(2-hydroxyethyl)-1,4-diazepane-1-carbonyl)phenyl)amino)(phenyl)methylene)-5-methyl-2-oxoindoline-6-carboxylate] | 6.65 nM | 2.49 nM | – | – | 87% | 80.2% | 18.2% | – |
| COC(=O)c1cc2c(cc1C)/C(=C(/Nc1ccc(C(=O)N3CCC(C(N)=O)(N4CCCCC4)CC3)cc1)c1ccccc1)C(=O)N2 [Example 47, (Z)-Methyl 3-(((4-(4′-carbamoyl-[1,4′-bipiperidine]-1′-carbonyl)phenyl)amino)(phenyl)methylene)-5-methyl-2-oxoindoline-6-carboxylate] | 98.9 nM | 3.67 nM | – | – | 143.1% | 123% | 58.5% | – |
| COC(=O)c1cc2c(cc1C)/C(=C(/Nc1ccc(C(=O)N(C)[C@H]3CN(C)C[C@@H]3O)cc1)c1ccccc1)C(=O)N2 [Example 48, (Z)-Methyl 3-(((4-(((3S,4S)-4-hydroxy-1-methylpyrrolidin-3-yl)(methyl)carbamoyl)phenyl)amino)(phenyl)methylene)-5-methyl-2-oxoindoline-6-carboxylate, 0.4 formate] | 9.49 nM | 2.29 nM | – | – | 84.4% | 74.4% | 14.1% | – |
| CNC(=O)CN(C)CCNC(=O)c1ccc(N/C(=C2\C(=O)Nc3cc(C(=O)OC)c(C)cc32)c2ccccc2)cc1 [Example 54, (Z)-Methyl 5-methyl-3-(((4-((2-(methyl(2-(methylamino)-2-oxoethyl)amino)ethyl)carbamoyl)phenyl)amino)(phenyl)methylene)-2-oxoindoline-6-carboxylate] | 15.8 nM | 5.04 nM | – | – | 110.2% | 105.5% | 92.4% | – |
| COC(=O)c1cc2c(cc1C)/C(=C(/Nc1ccc(C(=O)NCCN3CCNC(=O)C3)c(F)c1)c1ccccc1)C(=O)N2 [Example 55, (Z)-Methyl 3-(((3-fluoro-4-((2-(3-oxopiperazin-1-yl)ethyl)carbamoyl)phenyl)amino)(phenyl)methylene)-5-methyl-2-oxoindoline-6-carboxylate] | 25.1 nM | 9.13 nM | – | – | 79.4% | 101.5% | 101.7% | – |
| COC(=O)c1cc2c(cc1C)/C(=C(/Nc1ccc(C(=O)NCCN3CCCNC(=O)C3)cc1)c1ccccc1)C(=O)N2 [Example 56, (Z)-Methyl 5-methyl-2-oxo-3-(((4-((2-(3-oxo-1,4-diazepan-1-yl)ethyl)carbamoyl)phenyl)amino)(phenyl)methylene)indoline-6-carboxylate] | 12.6 nM | 9.16 nM | – | – | 100.0% | 104.9% | 102.0% | – |
